Like-named read-outs stand apart in the source and are kept apart here.
What was measured:
TK6 cells [1] = test: Mitotic disturbance assay; type: cell-based, human; conditions: 6 h, without S9; CBG 30 µM, CBD 15 µM, CBC 15 µM, CBDV 40 µM, CBN 15 µM; vs solvent control
Method: The cells were treated for 6 h with CBG 30 µM, CBD 15 µM, CBC 15 µM, CBDV 40 µM, and CBN 15 µM. The positive control was vincristine sulphate 0.0121 µM, and the solvent control was DMSO. For the experiments with or without the S9 mix (final concentration 0.25%), TK6 cells were treated with either CBDV 40 µM or vincristine sulphate 10 ng/mL for 6 h. DMSO with or without S9 mix was used as control. Further procedure was as described for micronucleus experiments, except with direct harvest after cannabinoid treatment without the incubation period with cytochalasin B. Two slides were evaluated with a Nikon Eclipse 55i fluorescent microscope for each experimental condition. The independent experiments were conducted three times.
The cells were counted in categories apoptosis, interphase, prophase, metaphase, anaphase-telophase, disturbed metaphase, and disturbed anaphase-telophase in 1000 cells. The mitotic index was calculated as a sum of the number of cells in prophase, metaphase, anaphase-telophase, disturbed metaphase, and disturbed anaphase-telophase in 1000 cells. Disturbed metaphase and disturbed anaphase-telophase were defined as deviating from the usual appearance of mitoses. Disturbed mitoses were assessed in 100 mitotic cells per slide.

[2] = test system: human lymphoblastoid TK6 cells; test: Kinetochore analysis of micronuclei; type: cell-based; conditions: 4 h
Method: For kinetochore analysis, cells were treated for 4 h with CBG 30 µM, CBD 15 µM, CBC 15 µM, CBDV 40 µM, and CBN 15 µM. The positive controls were MMS 40 µM, and vincristine sulphate 0.0121 µM; the solvent control was DMSO. After 4 h of treatment, the culture medium was renewed, and cells were exposed for 24 h to the cytokinesis inhibitor cytochalasin B (3 μg/mL). Then, cells were harvested, and slides were prepared with cytospin centrifugation. The cells were fixed in ice-cold methanol for 2 h. Kinetochores were stained overnight with undiluted primary anti-centromere antibody at 37 °C followed by 1:20 diluted FITC-conjugated secondary antibody at 37 °C for 2 h. Nuclei were counterstained with Hoechst 33,258 (5 µg/mL, 3 min). The experiment was performed one time. Per compound, 200 micronuclei were evaluated for kinetochore signal presence (Fig. 3). The evaluation was performed with a Keyence BZ-X800 microscope. The slides used in kinetochore evaluation were also evaluated for the number of induced micronuclei as described in the above paragraph cytokinesis‑block micronucleus assay.

TK6 cells [3] = test: Cell cycle analysis (flow cytometry, DAPI); type: cell-based, human; conditions: without S9, CBG 30 µM, CBD 15 µM, CBDV 40 µM
Method: The cells were treated with CBG 30 µM, CBD 15 µM, CBC 15 µM, CBDV 40 µM, and CBN 15 µM for 6 or 24 h. The positive control was vincristine sulphate in a concentration of 0.0121 µM for 6 h of exposure and 0.0061 µM for 24 h. The solvent control was DMSO. Furthermore, experiments with the addition of S9 mix were performed with CBDV. In these experiments, cells were treated with CBDV (40 µM) with or without 0.25% S9 mix for 6 h. DMSO with or without the S9 mix was used as control, and the positive control was the same as mentioned above. After the treatment, cells were collected, washed twice with phosphate buffered saline (PBS) and fixed with 70% ethanol for 30 min on ice. Following each described step above, cells were centrifuged at 1000 rpm, 5 min, and 4 °C. Lastly, cells were resuspended in 1% bovine serum albumin (BSA) in PBS solution and stained with DAPI in a final concentration of 1 µg/mL for 30 min on ice. The cell distribution in different cell cycle phases was analyzed with MACSQuant® Analyzer 16 Flow Cytometer using a 450/50 nm filter and MACSQuantify™ Software 2.13 (Miltenyi Biotec, Bergisch Gladbach, Germany). For each sample, 20 000 events were analyzed. Four independent experiments were performed for 6 h of treatment without metabolic activation. Three independent experiments were done for 24 h of treatment without metabolic activation and 6 h of treatment with metabolic activation.

[4] = design: method as in Taylor et al. [2018]; conditions: oral solution of CBD, healthy adults, ref Taylor et al. [2018], cited from earlier work
[5] = test system: human buccal cell line TR146; design: method as in Russo et al. ([2019]); conditions: ref Russo et al. ([2019]), cited from earlier work
human hepatoma cells = test system: human hepatoma cells; design: method as in Russo et al. ([2019]); conditions: 3 h of treatment, ref Russo et al. ([2019]); cited from earlier work
[6] = test system: human lymphoblastoid TK6 cells; design: method as in Henderson et al. ([2023]); conditions: TK6, with and without metabolic activation 4 h, and 27 h without metabolic activation; ref Henderson et al. ([2023]); cited from earlier work
[7] = test system: bone marrow or liver of rats; design: method as in European Medicine Agency (EMA) ([2019]); conditions: bone marrow or liver of rats after CBD treatment; ref European Medicine Agency (EMA) ([2019]); cited from earlier work
bone marrow of mice = test system: bone marrow of mice; design: method as in Zimmerman and Raj ([1980]); conditions: ref Zimmerman and Raj ([1980]); cited from earlier work
[8] = test system: human gastric cancer, Sertoli and Leydig cells; design: method as in Zhang et al. [2019]; Li et al. [2022], [2023]; conditions: 24 h of treatment; upregulated p53, reduced CDK2 and cyclin E; ref Zhang et al. [2019]; Li et al. [2022], [2023]; cited from earlier work
[9] = test system: human lymphoblastoid TK6 cells; test: Cytokinesis-block micronucleus (CBMN) assay

## C=C(C)[C@@H]1CCC(C)=C[C@H]1c1c(O)cc(CCCCC)cc1O [CBD, cannabidiol]
TK6 cells [1]
  Mitotic index: significantly decreased the mitotic index
[2]; of 200 micronuclei, CBG 30 µM, CBD 15 µM, CBC 15 µM, CBDV 40 µM, CBN 15 µM, MMS 40 µM, vincristine 0.0121 µM, one experiment
  Kinetochore (+) MNi, %: 47%
[2]; treatment – control (basal level of micronuclei subtracted), same concentrations
  Kinetochore (+) induced MNi: 63.7%
TK6 cells [3]; 6 h, CBC 15 µM, CBN 15 µM
  Cell cycle distribution, 6 h: no significant changes in the normal cell cycle distribution
TK6 cells [3]; 24 h
  Cell cycle distribution, 24 h: accumulation of cells in the G1 phase
[4]; high-fat meal
  Mean plasma Cmax following a high-fat meal: 1628 ng/mL
[4]; high-fat meal, read-out: Mean plasma Cmax following a high-fat meal
  Cmax: 5.2 µM
[4]
  Mean plasma Cmax: 335.4 ng/mL
[4]; read-out: Mean plasma Cmax
  Cmax: 1.1 µM
[5]; TR146, after 3 and 24 h
  DNA damage (comet assay): damaged DNA
[5]; TR146, with liver enzymes
  Genotoxic properties with addition of liver enzymes (comet assay): increased the genotoxic properties
Human hepatoma cells
  Micronucleus induction: significant induction of micronuclei
[6]
  Micronucleus results: negative micronucleus results
[7]
  Micronucleus and comet assay in vivo: negative results
Bone marrow of mice
  Micronuclei in bone marrow in vivo: induction of micronuclei
[8]
  Cell cycle effect: G1 phase cell cycle arrest
[9]; 10th percentile of BMD50 estimation, 4 h, micronucleus data
  BMDL (10th percentile): 2.1 µM
[9]; 50% increased relative genotoxicity vs controls, from micronucleus data, 4 h treatment, without S9, Bayesian BMD analysis
  4 h BMD50: 8.7 µM
[9]; 90th percentile of BMD50 estimation, 4 h, micronucleus data
  BMDU (90th percentile): 21.1 µM
[9]; 4 h, CBG 30 µM, CBD 15 µM, CBC 15 µM, CBDV 40 µM, CBN 15 µM, 0.25% S9 mix
  Number of micronuclei with S9 mix vs without: significant reduction in the number of micronuclei
[9]; 4 h treatment, without metabolic activation, at least one concentration, vs solvent control
  Micronucleus induction: significant induction of micronuclei

Reference: paper PMC11402852, “Genotoxicity of selected cannabinoids in human lymphoblastoid TK6 cells” (Archives of Toxicology, 2024)
